Drawing on patent publication US7109193B2, “Tricyclic diazepines tocolytic oxytocin receptor antagonists” (Wyeth, priority 2001, dated 2006), this text covers inhibition for 24 compounds.

This experiment deals with T1, human oxytocin receptor (Homo sapiens, UniProt P30559).
T1 construct: host or cells: CHO cells (pcDNA3.1 vector)
T1 sequence (P30559 1-389): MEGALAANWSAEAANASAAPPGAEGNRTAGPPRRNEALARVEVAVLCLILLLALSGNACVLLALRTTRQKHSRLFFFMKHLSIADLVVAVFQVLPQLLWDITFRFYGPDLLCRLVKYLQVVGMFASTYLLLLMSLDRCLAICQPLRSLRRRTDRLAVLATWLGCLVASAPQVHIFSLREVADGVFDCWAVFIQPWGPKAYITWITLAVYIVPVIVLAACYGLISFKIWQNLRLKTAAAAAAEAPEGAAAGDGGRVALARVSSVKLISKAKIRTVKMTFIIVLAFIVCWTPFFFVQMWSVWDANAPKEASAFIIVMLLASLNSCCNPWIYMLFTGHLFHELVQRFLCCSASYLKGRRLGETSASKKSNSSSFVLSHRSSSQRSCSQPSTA
The experiment is described as follows: Oxytocin binding in Chinese Hamster Ovary cell membranes expressing human oxytocin receptors. Particulars: 100 nM, CHO cell membranes, [3H]oxytocin, values without parentheses, read-out: OT % inhibition @ 100% nM.
`COc1cc(C(=O)N2Cc3ccc(C(=O)NCCC4CCCN4C)n3Cc3ccccc32)ccc1-n1c(C)ccc1C` (stereo not drawn) [Example 315, 10-[4-(2,5-Dimethyl-1H-pyrrol-1-yl)-3-methoxybenzoyl]-N-[2-(1-methyl-2-pyrrolidinyl)ethyl]-10,11-dihydro-5H-pyrrolo[2,1-c][1,4]benzodiazepine-3-carboxamide]: the inhibition at 0.1 µM worked out at 10%. Turning to `COc1ccccc1-c1ccc(C(=O)N2Cc3ccc(C(=O)N4CCN(C)CC4)n3Cc3ccccc32)cc1OC` [Example 56, {10-[(2,2′-Dimethoxy[1,1′-biphenyl]-4-yl)carbonyl]-10,11-dihydro-5H-pyrrolo[2,1-c][1,4]benzodiazepin-3-yl}(4-methyl-1-piperazinyl)methanone], the inhibition at 0.1 µM stood at 68%. The result for `Cc1cc(C(=O)N2Cc3ccc(C(=O)n4ccnc4)n3Cc3ccccc32)ccc1-c1ccccc1C(F)(F)F` [Example 294, 1H-Imidazol-1-yl(10-{[2-methyl-2′-(trifluoromethyl)[1,1′-biphenyl]-4-yl]carbonyl}-10,11-dihydro-5H-pyrrolo[2,1-c][1,4]benzodiazepin-3-yl)methanone] reads 54%; that for `COc1ccccc1-c1ccc(C(=O)N2Cc3ccc(C(=O)NCCCN(C)C)n3Cc3ccccc32)cc1C` [Example 72, N-[3-(Dimethylamino)propyl]-10-[(2′-methoxy-2-methyl[1,1′-biphenyl]-4-yl)carbonyl]-10,11-dihydro-5H-pyrrolo[2,1-c][1,4]benzodiazepine-3-carboxamide], 74%. The result for `COc1cc(C(=O)N2Cc3ccc(C(=O)N4CCCN(C)CC4)n3Cc3ccccc32)ccc1-c1ccccc1C` [Example 66, {10-[(2-Methoxy-2′-methyl[1,1′-biphenyl]-4-yl)carbonyl]-10,11-dihydro-5H-pyrrolo[2,1-c][1,4]benzodiazepin-3-yl}(4-methyl-1,4-diazepan-1-yl)methanone] reads 87%; that for `COc1cc(C(=O)N2Cc3ccc(C(=O)n4ccnc4)n3Cc3ccccc32)ccc1-c1ccccc1C` [Example 290, 1H-Imidazol-1-yl-{10-[(2-methoxy-2′-methyl[1,1′-biphenyl]-4-yl)carbonyl]-10,11-dihydro-5H-pyrrolo[2,1-c][1,4]benzodiazepin-3-yl}methanone], 78%.

Consider `COc1cccc(-c2ccc(C(=O)N3Cc4ccc(C(=O)N5CCN(CCCN(C)C)CC5)n4Cc4ccccc43)cc2OC)c1` [Example 255, {10-[(2,3′-Dimethoxy[1,1′-biphenyl]-4-yl)carbonyl]-10,11-dihydro-5H-pyrrolo[2,1-c][1,4]benzodiazepin-3-yl}{4-[3-(dimethylamino)propyl]-1-piperazinyl}methanone], for which the inhibition at 0.1 µM amounted to 80%. The result for `COc1ccccc1-c1ccc(C(=O)N2Cc3ccc(C(=O)n4ccnc4)n3Cc3ccccc32)cc1OC` [Example 293, {10-[(2,2′-Dimethoxy[1,1′-biphenyl]-4-yl)carbonyl]-10,11-dihydro-5H-pyrrolo[2,1-c][1,4]benzodiazepin-3-yl}(1H-imidazol-1-yl)methanone] reads 53%. The same measure for `COc1cc(C(=O)N2Cc3ccc(C(=O)N4CCN(CCCN(C)C)CC4)n3Cc3ccccc32)ccc1-c1cccc2ccccc12` [Example 253, {4-[3-(Dimethylamino)propyl]-1-piperazinyl}{10-[3-methoxy-4-(1-naphthyl)benzoyl]-10,11-dihydro-5H-pyrrolo[2,1-c][1,4]benzodiazepin-3-yl}methanone]: 71%; for `C=CCN1CCN(C(=O)c2ccc3n2Cc2ccccc2N(C(=O)c2ccc(-n4c(C)ccc4C)c(OC)c2)C3)CC1` [Example 318, (4-Allyl-1-piperazinyl){10-[4-(2,5-dimethyl-1H-pyrrol-1-yl)-3-methoxybenzoyl]-10,11-dihydro-5H-pyrrolo[2,1-c][1,4]benzodiazepin-3-yl}methanone]: 32%; for `COc1ccccc1-c1ccc(C(=O)N2Cc3ccc(C(=O)N[C@@H]4CN5CCC4CC5)n3Cc3ccccc32)cc1OC` [Example 300, N-[(3S)-1-Azabicyclo[2.2.2]oct-3-yl]-10-[(2,2′-dimethoxy[1,1′-biphenyl]-4-yl)carbonyl]-10,11-dihydro-5H-pyrrolo[2,1-c][1,4]benzodiazepine-3-carboxamide]: 72%.

On to `COc1ccccc1-c1ccc(C(=O)N2Cc3ccc(C(=O)N[C@@H](Cc4c[nH]cn4)C(N)=O)n3Cc3ccccc32)cc1OC` [Example 286, N-[(1S)-2-Amino-1-(1H-imidazol-4-ylmethyl)-2-oxoethyl]-10-[(2,2′-dimethoxy[1,1′-biphenyl]-4-yl)carbonyl]-10,11-dihydro-5H-pyrrolo[2,1-c][1,4]benzodiazepine-3-carboxamide], for which the inhibition at 0.1 µM came out at 86%. Consider `COc1ccccc1-c1ccc(C(=O)N2Cc3ccc(C(=O)N[C@H]4CN5CCC4CC5)n3Cc3ccccc32)cc1OC` [Example 299, N-[(3R)-1-Azabicyclo[2.2.2]oct-3-yl]-10-[(2,2′-dimethoxy[1,1′-biphenyl]-4-yl)carbonyl]-10,11-dihydro-5H-pyrrolo[2,1-c][1,4]benzodiazepine-3-carboxamide], for which the inhibition at 0.1 µM was 86%. `COc1ccccc1-c1ccc(C(=O)N2Cc3ccc(C(=O)N4CCCN(C)CC4)n3Cc3ccccc32)cc1OC` [Example 69, {10-[(2,2′-Dimethoxy[1,1′-biphenyl]-4-yl)carbonyl]-10,11-dihydro-5H-pyrrolo[2,1-c][1,4]benzodiazepin-3-yl}(4-methyl-1,4-diazepan-1-yl)methanone]: the inhibition at 0.1 µM amounted to 71%. As for `COc1ccccc1-c1ccc(C(=O)N2Cc3ccc(C(=O)N[C@H]4CN5CCC4CC5)n3Cc3ccccc32)cc1C` [Example 298, N-[(3R)-1-Azabicyclo[2.2.2]oct-3-yl]-10-[(2′-methoxy-2-methyl[1,1′-biphenyl]-4-yl)carbonyl]-10,11-dihydro-5H-pyrrolo[2,1-c][1,4]benzodiazepine-3-carboxamide], the inhibition at 0.1 µM is 94%. The result for `COc1ccccc1-c1ccc(C(=O)N2Cc3ccc(C(=O)N[C@@H]4CN5CCC4CC5)n3Cc3ccccc32)cc1C` [Example 295, N-[(3S)-1-Azabicyclo[2.2.2]oct-3-yl]-10-[(2′-methoxy-2-methyl[1,1′-biphenyl]-4-yl)carbonyl]-10,11-dihydro-5H-pyrrolo[2,1-c][1,4]benzodiazepine-3-carboxamide] reads 79%; that for `COc1ccccc1-c1ccc(C(=O)N2Cc3ccc(C(=O)N4CCN(C)CC4)n3Cc3ccccc32)cc1C` [Example 49, {10-[(2′-Methoxy-2-methyl[1,1′-biphenyl]-4-yl)carbonyl]-10,11-dihydro-5H-pyrrolo[2,1-c][1,4]benzodiazepin-3-yl}(4-methyl-1-piperazinyl)methanone], 92%; that for `COc1cc(C(=O)N2Cc3ccc(C(=O)NCCN4CCCCC4)n3Cc3ccccc32)ccc1-n1c(C)ccc1C` [Example 314, 10-[4-(2,5-Dimethyl-1H-pyrrol-1-yl)-3-methoxybenzoyl]-N-[2-(1-piperidinyl)ethyl]-10,11-dihydro-5H-pyrrolo[2,1-c][1,4]benzodiazepine-3-carboxamide], 19%.

In the case of `COc1cc(C(=O)N2Cc3ccc(C(=O)N4CCC(N5CCCC5)CC4)n3Cc3ccccc32)ccc1-n1c(C)ccc1C` [Example 313, {10-[4-(2,5-Dimethyl-1H-pyrrol-1-yl)-3-methoxybenzoyl]-10,11-dihydro-5H-pyrrolo[2,1-c][1,4]benzodiazepin-3-yl}[4-(1-pyrrolidinyl)-1-piperidinyl]methanone], the inhibition at 0.1 µM is 32%. The same measure for `COc1cccc(-c2ccc(C(=O)N3Cc4ccc(C(=O)N5CCN(CCCN(C)C)CC5)n4Cc4ccccc43)cc2C)c1` [Example 248, {4-[3-(Dimethylamino)propyl]-1-piperazinyl}{10-[(3′-methoxy-2-methyl[1,1′-biphenyl]-4-yl)carbonyl]-10,11-dihydro-5H-pyrrolo[2,1-c][1,4]benzodiazepin-3-yl}methanone]: 77%; for `Cc1ccccc1-c1ccc(C(=O)N2Cc3ccc(C(=O)N4CCCN(C)CC4)n3Cc3ccccc32)cc1` [Example 65, {10-[(2′-Methyl[1,1′-biphenyl]-4-yl)carbonyl]-10,11-dihydro-5H-pyrrolo[2,1-c][1,4]benzodiazepin-3-yl}(4-methyl-1,4-diazepan-1-yl)methanone]: 68%. The result for `COc1cc(C(=O)N2Cc3ccc(C(=O)NCCCn4ccnc4)n3Cc3ccccc32)ccc1-n1c(C)ccc1C` [Example 312, 10-[4-(2,5-Dimethyl-1H-pyrrol-1-yl)-3-methoxybenzoyl]-N-[3-(1H-imidazol-1-yl)propyl]-10,11-dihydro-5H-pyrrolo[2,1-c][1,4]benzodiazepine-3-carboxamide] reads 16%; that for `COc1ccccc1-c1ccc(C(=O)N2Cc3ccc(C(=O)N4CCCN(C)CC4)n3Cc3ccccc32)cc1C` [Example 62, {10-[(2′-Methoxy-2-methyl[1,1′-biphenyl]-4-yl)carbonyl]-10,11-dihydro-5H-pyrrolo[2,1-c][1,4]benzodiazepin-3-yl}(4-methyl-1,4-diazepan-1-yl)methanone], 91%; that for `Cc1ccccc1-c1ccc(C(=O)N2Cc3ccc(C(=O)N4CCN(CCCN(C)C)CC4)n3Cc3ccccc32)cc1` [Example 249, {4-[3-(Dimethylamino)propyl]-1-piperazinyl}{10-[(2′-methyl[1,1′-biphenyl]-4-yl)carbonyl]-10,11-dihydro-5H-pyrrolo[2,1-c][1,4]benzodiazepin-3-yl}methanone], 18%.
